From ChEMBL document CHEMBL4477199, “Design and synthesis of novel bicalutamide and enzalutamide derivatives as antiproliferative agents for the treatment of prostate cancer” (Eur J Med Chem, 2016) come the findings set out here.

The test system of one data set is LNCaP. The data set can be described thus: Antiproliferative activity against human LNCAP cells after 96 hrs by propidium iodide staining based fluorescence 2D monolayer assay. Type of data set: functional, cell-based.
The test system of a further data set is CWR22R. In words: Antiproliferative activity against human 22Rv1 cells after 96 hrs by propidium iodide staining based fluorescence 2D monolayer assay. Type of data set: functional, cell-based. Conditions: 22Rv1, 96 h.
Data set [1] deals with T1, Androgen receptor (Rattus norvegicus) (UniProt P15207).
T1 sequence (whole entry): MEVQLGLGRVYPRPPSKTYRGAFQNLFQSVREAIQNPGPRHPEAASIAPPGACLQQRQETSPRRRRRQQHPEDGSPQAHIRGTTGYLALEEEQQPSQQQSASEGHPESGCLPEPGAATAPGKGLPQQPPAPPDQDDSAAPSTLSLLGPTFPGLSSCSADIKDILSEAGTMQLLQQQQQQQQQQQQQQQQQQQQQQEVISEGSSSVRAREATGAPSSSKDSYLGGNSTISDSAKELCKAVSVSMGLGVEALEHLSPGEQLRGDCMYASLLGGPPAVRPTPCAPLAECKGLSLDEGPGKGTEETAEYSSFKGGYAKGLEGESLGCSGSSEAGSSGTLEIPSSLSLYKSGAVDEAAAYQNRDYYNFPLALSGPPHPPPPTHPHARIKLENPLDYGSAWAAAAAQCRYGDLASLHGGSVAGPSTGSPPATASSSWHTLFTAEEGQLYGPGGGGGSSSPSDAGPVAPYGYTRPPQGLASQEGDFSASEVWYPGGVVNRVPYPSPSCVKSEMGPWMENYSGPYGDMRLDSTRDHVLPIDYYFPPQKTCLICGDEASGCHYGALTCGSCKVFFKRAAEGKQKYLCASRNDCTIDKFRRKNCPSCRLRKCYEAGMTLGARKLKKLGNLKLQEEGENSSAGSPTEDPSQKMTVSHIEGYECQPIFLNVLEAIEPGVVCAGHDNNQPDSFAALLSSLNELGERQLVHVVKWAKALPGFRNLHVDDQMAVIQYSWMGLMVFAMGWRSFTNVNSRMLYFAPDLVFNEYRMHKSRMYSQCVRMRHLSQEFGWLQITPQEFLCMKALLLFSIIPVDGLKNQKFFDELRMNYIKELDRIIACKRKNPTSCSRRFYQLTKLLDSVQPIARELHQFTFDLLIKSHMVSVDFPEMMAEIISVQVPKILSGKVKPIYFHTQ
The data set can be described thus: (§1) Antagonist activity at rat androgen receptor fused with DNA-binding domain of GAL4 expressed in AR-UAS-bla GripTite 293 cells assessed as inhibition of R1881-induced receptor activation preincubated for 30 mins followed by R1881 addition measured after 16 to 24 hrs by betalactamase reporter gene assay. Type of data set: cell-based.

The next data set has as its target T2, Androgen receptor (Rattus norvegicus, UniProt P15207).
T2 sequence (P15207 whole entry): T1 sequence (whole entry)
Described as §1. Type of data set: cell-based.

A further data set concerns DU-145. The data set can be described thus: Antiproliferative activity against human DU145 cells after 96 hrs by propidium iodide staining based fluorescence 2D monolayer assay. Type of data set: functional, cell-based. The note with it: DU-145, 96 h.
For data set [2] the following is noted: 33000 µM.
Description: Solubility in 100% DMSO at 33 mM at -20 degC
A further data set has as its system VCaP. In words: Antiproliferative activity against human VCaP cells after 96 hrs by propidium iodide staining based fluorescence 2D monolayer assay. Type of data set: functional, cell-based.
For data set [3] the following is noted: 96 h.
Description: Solubility in RPMI1640 culture medium at <30 uM incubated for 4 days by microscopic analysis

SMILES strings stand for the structures.

With `CC(O)(COc1ccccc1OC(F)(F)F)C(=O)Nc1ccc([N+](=O)[O-])c(C(F)(F)F)c1` (stereo unspecified), the IC50 was 7.04 µM with LNCaP; 6.6 µM in the data set with CWR22R; 0.198 µM at Androgen receptor; 9.88 µM in the data set with DU-145; 9.61 µM with VCaP. In data set [1], the inhibition result is “Dose-dependent effect”. Also, the solubility result in data set [2] and in data set [3] was “Soluble” throughout.
As to `CC1(C)C(=O)N(c2ccc(C(F)(F)F)cc2)C(=O)N1c1ccc(C#N)cc1C(F)(F)F`, the IC50 in the data set with LNCaP is 8.36 µM; in the data set on CWR22R it was 100 µM; at Androgen receptor, 0.402 µM; with DU-145 it was 100 µM; in the data set with VCaP, 100 µM. The inhibition entry in data set [1] is “Dose-dependent effect”. Besides, the solubility entry in data set [2] and in data set [3] was “Soluble” in each case.
Take `CC1(C)C(=O)N(c2ccc(C(F)(F)F)cc2)C(=O)N1c1ccc([N+](=O)[O-])cc1C(F)(F)F`: the IC50 in the data set on LNCaP stood at 3.73 µM; in the data set on CWR22R, 16.4 µM; at Androgen receptor it was 0.265 µM; in the data set with DU-145 it was 100 µM; in the data set on VCaP it was 100 µM. The inhibition entry in data set [1] is “Dose-dependent effect”. Besides, the solubility result in data set [2] and in data set [3] was “Soluble” each time.
As for `CC(O)(COc1ccc(C#N)cc1C(F)(F)F)C(=O)Nc1ccc(C#N)cc1C(F)(F)F` (stereo unspecified), the IC50 in the data set with LNCaP was determined as 9.39 µM; with CWR22R, 18.4 µM; on Androgen receptor, 0.736 µM; in the data set on DU-145 it was 27.5 µM; in the data set with VCaP, 17.7 µM. Besides, the inhibition entry in data set [1] is “Dose-dependent effect”. The solubility result in data set [2] and in data set [3] was “Soluble” throughout.
In the case of `CC1(C)C(=O)N(c2cccc(C(F)(F)F)c2)C(=O)N1c1ccc([N+](=O)[O-])cc1C(F)(F)F`, the IC50 with LNCaP worked out at 4.07 µM; in the data set with CWR22R, 5.01 µM; at Androgen receptor, 0.111 µM; in the data set with DU-145, 7.88 µM; in the data set on VCaP, 13.3 µM. Also, the inhibition entry in data set [1] was “Dose-dependent effect”. Also, the solubility entry in data set [2] and in data set [3] was “Soluble” throughout.
Turning to `CC(O)(CSc1ccccc1C(F)(F)F)C(=O)Nc1ccc([N+](=O)[O-])cc1C(F)(F)F` (stereo unspecified), the IC50 amounted to 11.7 µM in the data set with LNCaP; 12 µM in the data set with CWR22R; 0.332 µM at Androgen receptor; 17.5 µM in the data set on DU-145; 12.8 µM with VCaP. Besides, the inhibition result in data set [1] was “Dose-dependent effect”. Also, the solubility entry in data set [2] and in data set [3] was “Soluble” throughout.
`CC(O)(COc1ccccc1C(F)(F)F)C(=O)Nc1ccc([N+](=O)[O-])c(C(F)(F)F)c1` (stereo unspecified): the IC50 with LNCaP turned out to be 22.6 µM; with CWR22R it was 20.2 µM; on Androgen receptor, 0.183 µM; in the data set on DU-145 it was 35.2 µM; with VCaP, 27.2 µM. For the same molecule, the inhibition entry in data set [1] is “Dose-dependent effect”. Moreover, the solubility result in data set [2] and in data set [3] was “Soluble” in each case.
`CC(O)(COc1ccccc1C(F)(F)F)C(=O)Nc1ccc(C(F)(F)F)cc1` (stereo unspecified): the IC50 with LNCaP turned out to be 6.98 µM; in the data set on CWR22R, 6.42 µM; in the data set on DU-145 it was 26.4 µM; with VCaP, 11.5 µM. Also, the solubility result in data set [2] and in data set [3] was “Soluble” in each case.
For `CC(O)(CS(=O)(=O)c1ccc(F)cc1)C(=O)Nc1ccc(C#N)cc1C(F)(F)F` (stereo unspecified), the IC50 in the data set on LNCaP worked out at 91.6 µM; in the data set with CWR22R, 77 µM; in the data set on DU-145, 100 µM; in the data set with VCaP, 65.2 µM. Moreover, the solubility entry in data set [2] and in data set [3] was “Soluble” throughout.
With `CC(O)(CSc1ccc(F)c(F)c1)C(=O)Nc1ccc([N+](=O)[O-])cc1C(F)(F)F` (stereo unspecified), the IC50 in the data set on LNCaP came out at 83 µM; with CWR22R, 83.6 µM; in the data set on DU-145, 100 µM; in the data set on VCaP, 100 µM. The solubility result in data set [2] and in data set [3] was “Soluble” each time.
In the case of `CC(O)(COc1ccc(C(F)(F)F)cc1)C(=O)Nc1ccc([N+](=O)[O-])cc1C(F)(F)F` (stereo unspecified), the IC50 in the data set on LNCaP is 13.6 µM; in the data set with CWR22R it was 18.9 µM; with DU-145, 22.1 µM; in the data set with VCaP, 18.6 µM. Also, the solubility result in data set [2] and in data set [3] was “Soluble” throughout.
For `CC(O)(COc1cccc(C(F)(F)F)c1)C(=O)Nc1ccc(C#N)cc1C(F)(F)F` (stereo unspecified), the IC50 in the data set with LNCaP is 15.2 µM; in the data set on CWR22R, 18.7 µM; in the data set on DU-145, 32.1 µM; in the data set on VCaP, 21.6 µM. The solubility entry in data set [2] and in data set [3] was “Soluble” in each case.
As for `C[C@](O)(CS(=O)(=O)c1ccccc1C(F)(F)F)C(=O)Nc1ccc(C#N)c(C(F)(F)F)c1`, the IC50 in the data set with LNCaP worked out at 32.2 µM; in the data set with CWR22R, 34.8 µM; with DU-145, 44.3 µM; in the data set with VCaP, 37.3 µM. Besides, the solubility entry in data set [2] and in data set [3] was “Soluble” each time.
Take `CC(O)(COc1ccc(OC(F)(F)F)cc1)C(=O)Nc1ccc(C#N)c(C(F)(F)F)c1` (stereo unspecified): the IC50 is 13.6 µM in the data set with LNCaP, 17.2 µM in the data set with CWR22R, 18.4 µM in the data set on DU-145 and 17.6 µM in the data set with VCaP. Further, the solubility result in data set [2] and in data set [3] was “Soluble” throughout.
`CC(O)(CS(=O)(=O)c1ccc(C(F)(F)F)cn1)C(=O)Nc1ccc([N+](=O)[O-])cc1C(F)(F)F` (stereo unspecified): the IC50 in the data set on LNCaP, in the data set with CWR22R, in the data set with DU-145 and in the data set on VCaP was 100 µM in each case. In addition, the solubility result in data set [2] and in data set [3] was “Soluble” in each case.
Consider `CC(O)(CSc1ccc(OC(F)(F)F)cc1)C(=O)Nc1ccc([N+](=O)[O-])cc1C(F)(F)F` (stereo unspecified), for which the IC50 amounted to 100 µM with LNCaP, 61.9 µM in the data set on CWR22R, 69.6 µM with DU-145 and 100 µM in the data set on VCaP. For the same molecule, the solubility entry in data set [2] and in data set [3] was “Soluble” each time.
For `CC(O)(COc1ccc(F)c(F)c1)C(=O)Nc1ccc([N+](=O)[O-])c(C(F)(F)F)c1` (stereo unspecified), the 50% inhibitory concentration (IC50) with LNCaP amounted to 14.5 µM; with CWR22R, 18.5 µM; in the data set with DU-145, 21.6 µM; in the data set with VCaP, 18.9 µM. The solubility result in data set [2] and in data set [3] was “Soluble” in each case.
For `CC(O)(CSc1ccc(F)cc1)C(=O)Nc1ccc([N+](=O)[O-])cc1C(F)(F)F` (stereo unspecified), the concentration for half-maximal inhibition (IC50) in the data set with LNCaP was 11.9 µM; with CWR22R it was 17.6 µM; with DU-145 it was 26.4 µM; with VCaP, 21.1 µM. Also, the solubility entry in data set [2] and in data set [3] was “Soluble” throughout.
For the molecule `CC1(C)C(=O)N(c2ccc(C(F)(F)F)cc2)C(=O)N1c1ccc(C#N)c(C(F)(F)F)c1`, the IC50 in the data set on LNCaP is 9.37 µM; in the data set on CWR22R, 63.6 µM; with DU-145, 100 µM; in the data set with VCaP, 30.1 µM. Further, the solubility entry in data set [2] and in data set [3] was “Soluble” each time.
Consider `CC(O)(CS(=O)(=O)c1ccccc1C(F)(F)F)C(=O)Nc1ccc([N+](=O)[O-])cc1C(F)(F)F` (stereo unspecified), for which the IC50 with LNCaP was 20.5 µM; with CWR22R, 28.3 µM; in the data set on DU-145, 46.1 µM; in the data set with VCaP, 38.6 µM. The solubility entry in data set [2] and in data set [3] was “Soluble” throughout.
Turning to `CC(O)(COc1ccc(F)c(F)c1)C(=O)Nc1ccc(C#N)c(C(F)(F)F)c1` (stereo unspecified), the IC50 in the data set with LNCaP came out at 19 µM; in the data set on CWR22R it was 35.5 µM; in the data set with DU-145, 45.2 µM; in the data set with VCaP, 25.6 µM. For the same molecule, the solubility entry in data set [2] and in data set [3] was “Soluble” each time.
Take `C[C@](O)(CS(=O)(=O)c1ccc(F)cc1F)C(=O)Nc1ccc(C#N)c(C(F)(F)F)c1`: the IC50 in the data set on LNCaP is 42.3 µM; in the data set with CWR22R, 42.2 µM; in the data set on DU-145, 60.2 µM; with VCaP, 60.9 µM. Besides, the solubility entry in data set [2] and in data set [3] was “Soluble” throughout.
